# Assay results from PubChem BioAssay AID588626 (NMMLSC, 2011).
# pEC50: −log10 of the molar value. Activity calls are given as the source filed them.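 How the source made its calls: active means half-effect potency at or under 10 µM with a response span of at least 30% after curve fit checks such as Hill slope 0.5 to 2; inactive means the rest.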
# Molecular target: Cell division control protein 42 homolog (Homo sapiens) (UniProt P60953)
# Assay: wild-type Cdc42 fluorescent nucleotide binding blockers – biochemical, wildtype, bead multiplex, flow cytometry, round 2, SAR follow-up (AID 588626)
# Details: Bead-based flow cytometry, Bodipy-FL-GTP binding, EDTA buffer
# Cell division control protein 42 homolog (Homo sapiens), sequence (P60953 whole entry, looked up): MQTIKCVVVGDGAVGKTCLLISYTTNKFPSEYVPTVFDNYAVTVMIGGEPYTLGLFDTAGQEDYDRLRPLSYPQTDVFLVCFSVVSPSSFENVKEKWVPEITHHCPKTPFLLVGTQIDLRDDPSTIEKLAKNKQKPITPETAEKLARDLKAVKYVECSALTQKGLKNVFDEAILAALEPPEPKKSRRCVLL
row,pEC50,SMILES
1,5.80,CC(C)(C)C1Cc2c(sc(NC(=S)NC(=O)c3ccccc3)c2C(=O)O)CO1 (stereo not drawn)
2,5.57,Cc1ccccc1C(=O)NC(=S)Nc1sc2c(c1C(=O)O)CC(C)(C)OC2
3,4.71,CC1(C)Cc2c(sc(NC(=S)NC(=O)c3cccc(Br)c3)c2C(=O)O)CO1
4,6.28,Cc1ccc(C(=O)NC(=S)Nc2sc3c(c2C(=O)O)CC(C)(C)OC3)cc1
5,5.58,CC1(C)Cc2c(sc(NC(=S)NC(=O)C3CCCCC3)c2C(=O)O)CO1
6,5.13,CC1(C)Cc2c(sc(NC(=S)NC(=O)c3ccccc3F)c2C(=O)O)CO1
7,4.75,CC1Cc2c(sc(NC(=S)NC(=O)c3ccccc3)c2C(=O)O)CO1 (stereo not drawn)
8,5.23,Cc1cccc(C(=O)NC(=S)Nc2sc3c(c2C(=O)O)CC(C)(C)OC3)c1

# Same assay, conditions: Bead-based flow cytometry, Bodipy-FL-GTP binding, EDTA buffer; at 100 µM (top of the series)
row,% response (GTP binding remaining),SMILES
1,inactive,O=C(NC(=S)Nc1sc2c(c1C(=O)O)CC1(CCCC1)OC2)c1ccccc1
2,inactive,CC1(C)Cc2c(sc(NC(=S)NC(=O)c3ccc(Br)cc3)c2C(=O)O)CO1
3,inactive,CC1(C)Cc2c(sc(NC(=S)NC(=O)c3cccs3)c2C(=O)O)CO1
4,inactive,CC1(C)Cc2c(sc(NC(=O)NC(=O)c3ccccc3)c2C(=O)O)CO1
5,inactive,CC1(C)Cc2c(sc(NC(=S)Nc3ccccc3)c2C(=O)O)CO1
6,inactive,CC1(C)Cc2c(sc(NC(=S)NC(=O)c3ccco3)c2C(=O)O)CO1
7,inactive,CC1(C)Cc2c(sc(NC(=S)NC(=O)c3ccccc3Br)c2C(=O)O)CO1
8,inactive,COc1ccc(C(=O)NC(=S)Nc2sc3c(c2C(=O)O)CC(C)(C)OC3)cc1
9,inactive,COc1cccc(C(=O)NC(=S)Nc2sc3c(c2C(=O)O)CC(C)(C)OC3)c1
10,inactive,O=C(NC(=S)Nc1sc2c(c1C(=O)O)CCOC2)c1ccccc1
11,inactive,CCC1(C)Cc2c(sc(NC(=S)NC(=O)c3ccccc3)c2C(=O)O)CO1 (stereo not drawn)
12,inactive,CC1(C)Cc2c(sc(NC(=S)NC(=O)c3ccc(F)cc3)c2C(=O)O)CO1
13,inactive,COc1ccccc1C(=O)NC(=S)Nc1sc2c(c1C(=O)O)CC(C)(C)OC2
14,inactive,CC1(C)Cc2c(sc(NC(=S)NC(=O)c3cccc(F)c3)c2C(=O)O)CO1
15,inactive,CC1(C)CCc2sc(NC(=S)NC(=O)c3ccccc3)c(C(=O)O)c2C1
